Laboratory results reported in patent publication US12098118B2 (Regents of the University of Minnesota, priority 2018, dated 2024).
Where two headings read alike, the source gives them in different places.

Key:
[1] = tested on: mice; assay: development of central morphine tolerance (intrathecal morphine, warm water tail flick test); format: in vivo; conditions: for ED50 (nmol, i.t.): tail flick day 4
Description: On day 4, four cumulative doses of morphine were given intrathecally to assess tolerance in the warm water tail flick test.
(§1) Doses were administered t.i.d. every 8 hours for 4 days. On day 6, four cumulative doses of morphine were given subcutaneously to assess tolerance in the warm water (52° C.) tail flick test.

[2] = tested on: mice; assay: development of chronic systemic morphine tolerance (s.c. morphine, warm water 52° C. tail flick test); format: in vivo; conditions: for development of systemic morphine tolerance: systemic co-administration with morphine (FIGS. 7B-D)
Description: as §1

[3] = tested on: mice; assay: acute in vivo bioassay of spinal opioid analgesic tolerance (ENDO-2 pre-treatment, warm water immersion tail flick test)
Excerpt: To evaluate the effects of the compounds in opioid tolerance an acute in vivo bioassay of opioid analgesic tolerance was employed. In this instance, either a large dose of the mu opioid receptor selective neuropeptide ENDO-2 is given or vehicle. When the analgesic effects are no longer evident, a second analgesic dose of ENDO-2 is given. The second analgesic dose of ENDO-2 is effective in the group pre-treated with saline, but not in the group that was pre-treated with the large dose of ENDO-2. When agmatine or when one of the SSA is given together with the large pre-treatment dose of ENDO-2, the second analgesic dose of ENDO-2 is effective. In this bioassay, agmatine and most of the SSAs prevented the development of opioid tolerance.
Formula I compounds from Table 2 were evaluated for their impact on the development of opioid analgesic tolerance when dosed central (intrathecally) and systemically (intraperitoneally). […] When a high dose of ENDO-2 is intrathecally injected a subsequent analgesic dose is no longer effective (30 minutes later) (Stone et al., 1997). This is a model of opioid-induced analgesic tolerance.
When that second group received a second injection of ENDO-2 (same dose as in the SAL group), the analgesic effect was not observed. Analgesic tolerance to ENDO-2 was, therefore, induced. […] AG 4 nmol (third bar from left).

[4] = tested on: mice with chronic pain induced by nerve-injury; assay: spinal nerve injury-induced neuropathic pain, von Frey monofilament tactile hypersensitivity; format: in vivo
[5] = tested on: nerve-injured mice; assay: rotarod assay of motor dysfunction and sedation; conditions: for rotarod performance: intravenously administered, doses effective in nerve-injured mice, 30 minutes post-injection
[6] = cardiovascular measures / heart rate after i.v. injection; conditions: in vivo
[7] = tested on: female mice; assay: oral oxycodone self-administration model of opioid addiction (active vs control lever); format: in vivo
Description: FIGS. 6A and 6B show an in vivo model of opioid addiction in mice. […] Open symbols represent the lever pressing of mice on the “control” lever that result in no reward. Solid symbols represent the lever pressing of mice on the “active lever” which results in delivery of a 70 μL volume of oxycodone into a receptacle. The mice lick or drink the opioid from the receptacle.
Formula I compounds were assessed for similar effects in a model of oral oxycodone self-administration. […] Standard enclosed operant conditioning chambers modeled opioid addiction where in response to a light cue, mice have an opportunity to choose between one of two levers. Pressing one lever (the “Active” lever) results in delivery of a small quantity of oxycodone to a drinking receptacle where the mouse can lick or drink the fluid. Pressing the other lever (termed “Control” lever) results in no reward. In this experiment, female mice were separated into two groups; both groups were trained to lever press for oxycodone reward after pressing the “Active” lever of a two lever choice. Initially one lever press results in one delivery of opioid fluid. Pressing the “control” lever offers no reward. […] On day 15, they were required to press the active lever 3 times to seek the reward. […] The mice were given six injections over a period of 8 days. […] Responses were monitored from Day 20-40 of the experiment. […]

[8] = in vivo
[9] = tested on: nerve-injured mice; conditions: intrathecal, previously observed; cited from earlier work
[10] = tested on: rats; conditions: Morgan et al. 2002; cited from earlier work
[11] = morphine i.t. ED50 (interval in brackets) after pre-treatment Morphine (10 nmol, i.t.) + compound (10 nmol, i.t.) or VEH b.i.d. 3 days
[12] = co-administered intrathecally (it) with tolerance-inducing ENDO-2 pre-treatment, agmatine 4 nmol
[13] = delivered systemically, ip, dose not given
[14] = IV, 0.45, 1.35, 4.5 micromoles/kg, induction and maintenance phase, ipsilateral hindpaw
[15] = delivered systemically, 100 mg/kg ip, with intrathecal ENDO-2 pre-treatment

Row | Structure (SMILES) | development of opioid analgesic tolerance to ENDO-2 [3, 12] | development of opioid analgesic tolerance to ENDO-2 [3, 13] | hindpaw withdrawal thresholds (von Frey) [4, 14] | rotarod performance [5] | impact on cardiovascular measures [6] | development of opioid analgesic tolerance to ENDO-2 [3, 15] | development of systemic morphine tolerance [2] | also measured
1 | CN1CC[C@]23c4c5ccc(O)c4O[C@H]2[C@@H](O)C=C[C@H]3[C@H]1C5 [Morphine, morphine, reference compound] | – | – | – | – | – | – | – | ED50 (nmol, i.t.) [1, 11]: 10.84 (4.94, 23.82) nmol; ED50 ([2]; Mus musculus, sc, 144 h, morphine s.c. ED50 after pre-treatment Morphine (10 mg/kg, s.c.) + compound (3 mg/kg s.c.) or VEH t.i.d. 4 days, tail flick day 6, read-out: ED50 (95% CI) (mg/kg, s.c.)): 24.9 mg/kg
2 | CCOC(=O)/N=C(\NCCCCNC(C)=O)NC(=O)OCC [J-3] | prevented the development of opioid analgesic tolerance | prevented the development of opioid analgesic tolerance | the hindpaw withdrawal thresholds elevated toward control levels of responding | did not impact rotarod performance | no impact on cardiovascular measures | – | – | response compared to the response of agmatine ([4]; IV, 0.45, 1.35, 4.5 micromoles/kg): No significant difference
3 | CC(=O)NCCCCN/C(=N\C(=O)OC(C)(C)C)NC(=O)OC(C)(C)C [J-4, 4-(2,3-bis(tert-butyloxycarbonyl)guanidino)butylacetamide] | – | prevented the development of opioid analgesic tolerance | the hindpaw withdrawal thresholds elevated toward control levels of responding | did not impact rotarod performance | no impact on cardiovascular measures | – | – | reduction of established neuropathic pain compared with agmatine at the same dose ([4]; IV, 1.35 micromoles/kg, maintenance phase for J-4 (FIG. 2F vs 2B)): distinctly greater than that of agmatine at the same dose; preference for active versus control lever (oxycodone) ([7]; intraperitoneal (IP) injection prior to session (FIG. 6B)): showed greatly reduced preference for the active versus the control lever; preference for active versus control lever (oxycodone) ([7]; intravenous injections, 30 mg/kg, six injections over 8 days): showed little preference for the lever after injections were initiated
4 | CCOC(=O)NCCCCNC(=N)N [J-2, ethyl (4-guanidinobutyl)carbamate] | prevented the development of opioid analgesic tolerance | – | – | – | – | prevented the development of opioid analgesic tolerance | reduces or prevents the development of systemic morphine tolerance | –
5 | CCOC(=O)/N=C(/N)NCCCCNC(C)=O [J-6] | prevented the development of opioid analgesic tolerance | – | – | – | – | prevented the development of opioid analgesic tolerance | – | –
6 | N=C(N)NCCCCN [agmatine, 1-(4-aminobutyl)guanidine, reference compound] | protected against the induction of opioid tolerance | – | the hindpaw withdrawal thresholds elevated toward control levels of responding | did not impact rotarod performance | – | – | reduces or prevents the development of systemic morphine tolerance | impact on cardiovascular measures [8]: no impact on cardiovascular measures; rotarod performance [9]: does not impact rotarod performance; heroin-induced self-administration [10]: diminishes heroin-induced self-administration in rats
7 | CCOC(=O)/N=C(/N)NCCCCNC(=O)OCC [J-1, ethyl (amino((4-((ethoxycarbonyl)amino)butyl)amino)methylene)carbamate] | – | – | – | – | – | – | reduces or prevents the development of systemic morphine tolerance | development of opioid analgesic tolerance to ENDO-2 ([3]; systemically, dose range of 1-30 mg/kg): did not prevent the development of opioid analgesic tolerance; development of central morphine tolerance ([1]; intrathecal co-administration with morphine (FIG. 7A)): prevented the development of central morphine tolerance; ED50 (nmol, i.t.) [1, 11]: 2.86 (2.41, 3.40) nmol; ED50 (nmol, i.t.) ([1]; morphine i.t. ED50 (interval in brackets) after pre-treatment Saline + compound (10 nmol, i.t.) b.i.d. 3 days): 3.82 (2.95, 4.94) nmol; time to onset of effect compared to agmatine ([4]; mouse, in vivo): significantly earlier time to onset of effect
8 | CC(=O)NCCCCNC(=N)N [J-5, N-(4-guanidinobutyl)acetamide] | prevented the development of opioid analgesic tolerance | – | – | – | – | prevented the development of opioid analgesic tolerance | – | –
9 | CCOC(=O)/N=C(\NCCCCN)NC(=O)OCC.Cl [J-8, 4-(2,3-bis(ethoxycarbonyl)guanidino)butan-1-aminium chloride] | prevented the development of opioid analgesic tolerance | prevented the development of opioid analgesic tolerance | – | – | no impact | – | – | hindpaw withdrawal thresholds (von Frey) ([4]; IV, five doses 0.045, 0.0135, 0.45, 1.35, 4.5 micromoles/kg (approximately 1-100 mg/kg), induction phase): the hindpaw withdrawal thresholds elevated significantly toward control levels of responding in a dose-dependent manner; motor impairment ([5]; early side effects studies): no impact
10 | CCOC(=O)/N=C(/N)NCCCCN [J-7, 4-(2-(ethoxycarbonyl)guanidino) butan-1-aminium 2,2,2-trifluoroacetate] | – | – | – | – | – | prevented the development of opioid analgesic tolerance | – | development of opioid analgesic tolerance to ENDO-2 ([3]; systemically delivered, 10 mg/kg dose): prevented the development of opioid analgesic tolerance
